Experimental data taken from patent US20250374927A1, “HERBICIDAL COMBINATIONS AND A METHOD FOR CONTROLLING UNDESIRED VEGETATION” (UPL Mauritius Limited, priority 2022, published 2025).

Tested on: Borreria verticillata
Assay: Post-emergence herbicidal efficacy of L-glufosinate ammonium, additional herbicides and their combinations (observed vs Colby expected)
Format: in vivo
Method: Methodology: Trials were carried out to evaluate the efficacy of the combination comprising L-glufosinate ammonium and the additional herbicides on Spermacoce genus weeds.
The soil used was sandy clay loam-sand: 68.0%; silt: 8.0%; clay: 24.0%.
All treatments were in 4 replications per treatment with a spray volume of about 150 L/ha.
Efficacy Evaluation: The expected efficacy of the combination comprising L-glufosinate ammonium and additional herbicides was calculated using the well-established Colby method.
In the Colby method, the expected (or predicted) response of a combination of herbicides is calculated by taking the product of the observed response for each individual component of the combination when applied alone, divided by 100, and subtracting this value from the sum of the observed response for each component when applied alone. An unexpected enhancement in efficacy of the combination is then determined by comparing the observed response of the combination to the expected (or predicted) response as calculated from the observed response of each individual component alone. If the observed response of the combination is greater than the expected (or predicted) response, or stated conversely, if the difference between the observed and expected response is greater than zero, then the combination is said to be synergistic or unexpectedly effective (Colby, S. R., Weeds, 1967(15), p. 20-22). The Colby method requires only a single dose of each herbicide applied alone and the mixture of both doses. The formula used to calculate the expected efficacy (EE) which was compared with the observed efficacy (OE) to determine the efficacy of the present disclosure is explained hereinbelow:
The expected efficacy for a combination of two active ingredients is as follows:
The expected efficacy for a combination of three active ingredients is as follows: […]

COCc1cnc(C2=NC(C)(C(C)C)C(=O)N2)c(C(=O)O)c1 (stereo not drawn) [Imazamox]
Observed efficacy (%) of Imazamox (21 g a.i./ha) (3 DAA, 21 g a.i./ha, Example 6): 10%

CP(=O)(O)CC[C@H](N)C(=O)O.N [L-glufosinate ammonium]
Observed efficacy (%) of L-glufosinate ammonium (Glufosinate-P-ammonium) (150 g a.i./ha) (3 DAA, Example 6): 55%
Observed efficacy (%) of L-glufosinate ammonium (Glufosinate-P-ammonium) (150 g a.i./ha) (3 DAA, Example 7): 50%
Observed efficacy (%) of L-glufosinate ammonium (Glufosinate-P-ammonium) (150 g a.i./ha) (3 DAA, Example 8): 50%
Observed efficacy (%) of L-glufosinate ammonium (Glufosinate-P-ammonium) (150 g a.i./ha) (7 DAA, Example 1): 65%
Observed efficacy (%) of L-glufosinate ammonium (Glufosinate-P-ammonium) (150 g a.i./ha) (7 DAA, Example 2): 65%
Observed efficacy (%) of L-glufosinate ammonium (Glufosinate-P-ammonium) (150 g a.i./ha) (7 DAA, Example 3): 85%
Observed efficacy (%) of L-glufosinate ammonium (Glufosinate-P-ammonium) (150 g a.i./ha) (7 DAA, Example 5): 90%
Observed efficacy (%) of L-glufosinate ammonium (Glufosinate-P-ammonium) (150 g a.i./ha) (7 DAA, Example 7): 80%
Observed efficacy (%) of L-glufosinate ammonium (Glufosinate-P-ammonium) (150 g a.i./ha) (7 DAA, Example 8): 80%
Observed efficacy (%) of L-glufosinate ammonium (Glufosinate-P-ammonium) (150 g a.i./ha) (14 DAA, Example 3): 80%
Observed efficacy (%) of L-glufosinate ammonium (Glufosinate-P-ammonium) (150 g a.i./ha) (14 DAA, Example 5): 80%
Observed efficacy (%) of L-glufosinate ammonium (Glufosinate-P-ammonium) (150 g a.i./ha) (14 DAA, Example 7): 95%
Observed efficacy (%) of L-glufosinate ammonium (Glufosinate-P-ammonium) (150 g a.i./ha) (14 DAA, Example 8): 95%
Observed efficacy (%) of L-glufosinate ammonium (Glufosinate-P-ammonium) (150 g a.i./ha) (21 DAA, Example 7): 90%
Observed efficacy (%) of L-glufosinate ammonium (Glufosinate-P-ammonium) (150 g a.i./ha) (21 DAA, Example 8): 90%
Observed efficacy (%) of L-glufosinate ammonium (Glufosinate-P-ammonium) (150 g a.i./ha) (28 DAA, Example 1): 95%
Observed efficacy (%) of L-glufosinate ammonium (Glufosinate-P-ammonium) (150 g a.i./ha) (28 DAA, Example 2): 95%
Observed efficacy (%) of L-glufosinate ammonium (Glufosinate-P-ammonium) (150 g a.i./ha) (28 DAA, Example 4): 90%
Observed efficacy (%) of L-glufosinate ammonium (Glufosinate-P-ammonium) (150 g a.i./ha) (28 DAA, Example 7): 90%
Observed efficacy (%) of L-glufosinate ammonium (Glufosinate-P-ammonium) (150 g a.i./ha) (28 DAA, Example 8): 90%
Observed efficacy (%) of L-glufosinate ammonium (Glufosinate-P-ammonium) (150 g a.i./ha) (35 DAA, Example 4): 85%
Observed efficacy (%) of L-glufosinate ammonium (Glufosinate-P-ammonium) (150 g a.i./ha) (35 DAA, Example 7): 85%
Observed efficacy (%) of L-glufosinate ammonium (Glufosinate-P-ammonium) (150 g a.i./ha) (35 DAA, Example 8): 85%

C[N+](C)(C)CCO.O=C([O-])COc1ccc(Cl)cc1Cl [2,4-D choline, 2,4-dichlorophenoxyacetic acid (2,4-D) choline]
Observed efficacy (%) of 2,4-D choline (137 g a.i./ha) (7 DAA, 137 g a.i./ha, Example 9): 30%
Observed efficacy (%) of 2,4-D choline (228 g a.i./ha) (7 DAA, 228 g a.i./ha, Example 10): 30%

CCOc1cc(Oc2ccc(C(F)(F)F)cc2Cl)ccc1[N+](=O)[O-] [Oxyfluorfen]
Observed efficacy (%) of Oxyfluorfen (430 g a.i./ha) (7 DAA, Example 3): 65%
Observed efficacy (%) of Oxyfluorfen (430 g a.i./ha) (14 DAA, Example 3): 70%

CS(=O)(=O)c1ccc(C(=O)C2C(=O)CCCC2=O)c([N+](=O)[O-])c1 [Mesotrione]
Observed efficacy (%) of Mesotrione (360 g a.i./ha) (28 DAA, Example 4): 75%
Observed efficacy (%) of Mesotrione (360 g a.i./ha) (35 DAA, Example 4): 75%

COc1c(Cl)ccc(-c2nc(C(=O)OCc3ccccc3)c(Cl)c(N)c2F)c1F [Florpyrauxifen-benzyl]
Observed efficacy (%) of Florpyrauxifen-benzyl (15 g a.i./ha) (7 DAA, Example 2): 30%
Observed efficacy (%) of Florpyrauxifen-benzyl (15 g a.i./ha) (28 DAA, Example 2): 20%

CSc1nnc(C(C)(C)C)c(=O)n1N [Metribuzin]
Observed efficacy (%) of Metribuzin (360 g a.i./ha) (7 DAA, Example 5): 90%
Observed efficacy (%) of Metribuzin (360 g a.i./ha) (14 DAA, Example 5): 30%

Cc1cnc(C2=NC(=O)C(C)(C(C)C)N2)c(C(=O)O)c1 (stereo not drawn) [Imazapic]
Observed efficacy (%) of Imazapic (59 g a.i./ha) (3 DAA, Example 7): 10%
Observed efficacy (%) of Imazapic (59 g a.i./ha) (7 DAA, Example 7): 20%
Observed efficacy (%) of Imazapic (59 g a.i./ha) (14 DAA, Example 7): 35%
Observed efficacy (%) of Imazapic (59 g a.i./ha) (21 DAA, Example 7): 30%
Observed efficacy (%) of Imazapic (59 g a.i./ha) (28 DAA, Example 7): 40%
Observed efficacy (%) of Imazapic (59 g a.i./ha) (35 DAA, Example 7): 60%

COc1c(Cl)ccc(Cl)c1C(=O)O [Dicamba]
Observed efficacy (%) of Dicamba (228 g a.i./ha) (7 DAA, 228 g a.i./ha, Example 1): 45%
Observed efficacy (%) of Dicamba (228 g a.i./ha) (28 DAA, 228 g a.i./ha, Example 1): 40%
